Reference: patent EP1171107B1, “USE OF A PHARMACEUTICAL COMPOSITION IN THE MANUFACTURE OF A MEDICAMENT FOR THE TREATMENT OF PATHOLOGICAL CONDITIONS OF THE EYE CAUSED BY BACTERIA, VIRUSES, FUNGI, YEASTS AND PROTOZOA” (Dr. GERHARD MANN chem.-pharm. Fabrik GmbH, priority 1999, dated 2000)

Columns and labels:
Format in all cases: cell-based
[1] = test system: E.coli; experiment: Quantitative germ count (re-isolation, surface method) after inoculating the test preparation; settings: Ausgangskeimzahl 2,7 x 10^5 KBE/ml
Description: (§1) Escherichia (E.coli) Staphylococcus (S.aureus) Streptococcus (Sc.) Pneumoniae Pseudomonas (P.aeruginosa) Staphylococcus (S. epidermidis) Haemophilus (H. influenzae)
(§2) Die verschiedenen Testkeime wurde jeweils aus einem Lyophilisat in NaCl-Peptonpuffer homogenisiert und auf Caseinpepton-Sojymehlpepton. (Caso-) Agar (Fa. bioMérieux; Art. Nr. 43019) bez. Kochblut-Agar (Fa. bioMérieux; Art. Nr. 43109) subkultiviert. Die Teststämme wurden vor Versuchsbeginn durch Erstellen eines biochemischen Profils mittels ATB/Vitek-System (Fa. bioMérieux, Nürtingen) auf Reinheit und Identität überprüft.
(§3) Die Ausgangskeimzahl wurde im Oberflächenverfahren mit Hilfe eines Spiralplaters (Fa. Meintrup, Lähden) ermittelt und ist im einzelnen den Tabellen 1-12 zu entnehmen.
(§4) Die verschiedenen Testsubstanzen a. bis j. wurden jeweils zu 5 ml in sterile Zentrifugenröhrchen abgefüllt und mit ca. 10^5 KBE^*/ml (* = koloniebildende Einheiten) der oben genannten Testkeime kontaminiert. Pro Substanz wurde für jeden Testkeim und jede zu prüfende Testzeit ein separater Ansatz angeimpft, d.h.10 Testsubstanzen zu jeweils 7 Testzeiten und 6 Testkeime (= insgesamt 502 Testansätze). […] Der Überstand wurde dekantiert und das Pellet in 5 ml NaCl Peptonpuffer aufgenommen und resuspendiert. Die Suspension wurde erneut 10 Minuten bei 3000 rpm abzentrifugiert und 5 ml NaCl-Peptonpuffer aufgenommen und mittels Vortex homogenisiert.
(§5) Die anschließende Keimzahlbestimmung erfolgte im Oberflächenverfahren durch Ausspiralisieren eines […] Aliquots auf Caso-Agar bzw. für H. influenzae auf Kochblut-Agar. Die Platten wurden bei 33±2°C für max. 4 Tage bebrütet. Die Nachweisgrenze des Verfahrens liegt bei 100 KBE/ml.

[2] = test system: H.influenzae; experiment: as above; settings: Ausgangskeimzahl 2,8 x 10^5 KBE/ml
Description: as §1, §2, §3, §4, §5

[3] = test system: S.aureus; experiment: as above; settings: Ausgangskeimzahl 2,6 x 10^5 KBE/ml
Description: as §1, §2, §3, §4, §5

[4] = test system: Sc. pneumoniae; experiment: as above; settings: Ausgangskeimzahl 3,7 x 10^5 KBE/ml
Description: as §1, §2, §3, §4, §5

[5] = test system: P.aeruginosa; experiment: as above; settings: Ausgangskeimzahl 2,7 x 10^5 KBE/ml
Description: as §1, §2, §3
(§6) Die verschiedenen Testsubstanzen a. bis j. wurden jeweils zu 5 ml in sterile Zentrifugenröhrchen abgefüllt und mit ca. 10^5 KBE^*/ml (* = koloniebildende Einheiten) der oben genannten Testkeime kontaminiert. Pro Substanz wurde für jeden Testkeim und jede zu prüfende Testzeit ein separater Ansatz angeimpft, d.h.10 Testsubstanzen zu jeweils 7 Testzeiten und 6 Testkeime (= insgesamt 502 Testansätze). Nach 2, 6, 8, 24, 32, 48 und 72 Stunden wurde dann der jeweilige Testansatz 10 Minuten bei 3000 rpm abzentrifugiert. Der Überstand wurde dekantiert und das Pellet in 5 ml NaCl Peptonpuffer aufgenommen und resuspendiert. Die Suspension wurde erneut 10 Minuten bei 3000 rpm abzentrifugiert und 5 ml NaCl-Peptonpuffer aufgenommen und mittels Vortex homogenisiert.
as §5

[6] = test system: E.coli; experiment: Qualitative examination: enrichment of the inoculated test preparation in broth
Description: as §1, §2, §4
(§7) Jeweils 2 ml der Testansätze wurden in 20 ml Caso-Bouillon oder für H. influenzae, in Fildes-Medium der Firma Becton Dickinson, ARt. Nr. 0349-739, angereichert und ebenfalls maximal 4 Tage bei 33± 2°C bebrütet. Ein negatives Ergebnis der Anreicherung belegt die Elimination der inokulierten Keime.

[7] = test system: S.aureus; experiment: as above
Description: as §1, §2, §4, §7

[8] = test system: S.epidermidis; experiment: as above
Description: as §1, §2, §4, §7

[9] = test system: Sc. pneumoniae; experiment: as above
Description: as §1, §2, §4, §7

[10] = test system: H.influenzae; experiment: as above
Description: as §1, §2, §6, §7

[11] = test system: P.aeruginosa; experiment: as above
Description: as §1, §2, §6, §7

Benzalkoniumchlorid [Benzalkoniumchlorid 0,006 Gew.-%]
Ergebnis der Reisolierung (in KBE/ml) ([1]; 2 h after inoculation): <100 KBE/ml
Ergebnis der Reisolierung (in KBE/ml) ([1]; 4 h after inoculation): <100 KBE/ml
Ergebnis der Reisolierung (in KBE/ml) ([1]; 6 h after inoculation): <100 KBE/ml
Ergebnis der Reisolierung (in KBE/ml) ([1]; 8 h after inoculation): <100 KBE/ml
Ergebnis der Reisolierung (in KBE/ml) ([1]; 24 h after inoculation): <100 KBE/ml
Ergebnis der Reisolierung (in KBE/ml) ([1]; 32 h after inoculation): <100 KBE/ml
Ergebnis der Reisolierung (in KBE/ml) ([1]; 48 h after inoculation): <100 KBE/ml
Ergebnis der Reisolierung (in KBE/ml) ([1]; 72 h after inoculation): <100 KBE/ml
Ergebnis der Reisolierung (in KBE/ml) ([2]; 2 h after inoculation): <100 KBE/ml
Ergebnis der Reisolierung (in KBE/ml) ([2]; 4 h after inoculation): <100 KBE/ml
Ergebnis der Reisolierung (in KBE/ml) ([2]; 6 h after inoculation): <100 KBE/ml
Ergebnis der Reisolierung (in KBE/ml) ([2]; 8 h after inoculation): <100 KBE/ml
Ergebnis der Reisolierung (in KBE/ml) ([2]; 24 h after inoculation): <100 KBE/ml
Ergebnis der Reisolierung (in KBE/ml) ([2]; 32 h after inoculation): <100 KBE/ml
Ergebnis der Reisolierung (in KBE/ml) ([2]; 48 h after inoculation): <100 KBE/ml
Ergebnis der Reisolierung (in KBE/ml) ([2]; 72 h after inoculation): <100 KBE/ml
Ergebnis der Reisolierung (in KBE/ml) ([3]; 2 h after inoculation): <100 KBE/ml
Ergebnis der Reisolierung (in KBE/ml) ([3]; 4 h after inoculation): <100 KBE/ml
Ergebnis der Reisolierung (in KBE/ml) ([3]; 6 h after inoculation): <100 KBE/ml
Ergebnis der Reisolierung (in KBE/ml) ([3]; 8 h after inoculation): <100 KBE/ml
Ergebnis der Reisolierung (in KBE/ml) ([3]; 24 h after inoculation): <100 KBE/ml
Ergebnis der Reisolierung (in KBE/ml) ([3]; 32 h after inoculation): <100 KBE/ml
Ergebnis der Reisolierung (in KBE/ml) ([3]; 48 h after inoculation): <100 KBE/ml
Ergebnis der Reisolierung (in KBE/ml) ([3]; 72 h after inoculation): <100 KBE/ml
Ergebnis der Reisolierung (in KBE/ml) ([4]; 2 h after inoculation): <100 KBE/ml
Ergebnis der Reisolierung (in KBE/ml) ([4]; 4 h after inoculation): <100 KBE/ml
Ergebnis der Reisolierung (in KBE/ml) ([4]; 6 h after inoculation): <100 KBE/ml
Ergebnis der Reisolierung (in KBE/ml) ([4]; 8 h after inoculation): <100 KBE/ml
Ergebnis der Reisolierung (in KBE/ml) ([4]; 24 h after inoculation): <100 KBE/ml
Ergebnis der Reisolierung (in KBE/ml) ([4]; 32 h after inoculation): <100 KBE/ml
Ergebnis der Reisolierung (in KBE/ml) ([4]; 48 h after inoculation): <100 KBE/ml
Ergebnis der Reisolierung (in KBE/ml) ([4]; 72 h after inoculation): <100 KBE/ml
Ergebnis der Reisolierung (in KBE/ml) ([5]; 2 h after inoculation): <100 KBE/ml
Ergebnis der Reisolierung (in KBE/ml) ([5]; 4 h after inoculation): <100 KBE/ml
Ergebnis der Reisolierung (in KBE/ml) ([5]; 6 h after inoculation): <100 KBE/ml
Ergebnis der Reisolierung (in KBE/ml) ([5]; 8 h after inoculation): <100 KBE/ml
Ergebnis der Reisolierung (in KBE/ml) ([5]; 24 h after inoculation): <100 KBE/ml
Ergebnis der Reisolierung (in KBE/ml) ([5]; 32 h after inoculation): <100 KBE/ml
Ergebnis der Reisolierung (in KBE/ml) ([5]; 48 h after inoculation): <100 KBE/ml
Ergebnis der Reisolierung (in KBE/ml) ([5]; 72 h after inoculation): <100 KBE/ml
Ergebnis der Reisolierung qualitiativ (+/-) nach Anreicherung ([6]; 2 h after inoculation): -
Ergebnis der Reisolierung qualitiativ (+/-) nach Anreicherung ([6]; 4 h after inoculation): -
Ergebnis der Reisolierung qualitiativ (+/-) nach Anreicherung ([6]; 6 h after inoculation): -
Ergebnis der Reisolierung qualitiativ (+/-) nach Anreicherung ([6]; 8 h after inoculation): -
Ergebnis der Reisolierung qualitiativ (+/-) nach Anreicherung ([6]; 24 h after inoculation): -
Ergebnis der Reisolierung qualitiativ (+/-) nach Anreicherung ([6]; 32 h after inoculation): -
Ergebnis der Reisolierung qualitiativ (+/-) nach Anreicherung ([6]; 48 h after inoculation): -
Ergebnis der Reisolierung qualitiativ (+/-) nach Anreicherung ([6]; 72 h after inoculation): -
Ergebnis der Reisolierung qualitiativ (+/-) nach Anreicherung ([7]; 2 h after inoculation): -
Ergebnis der Reisolierung qualitiativ (+/-) nach Anreicherung ([7]; 4 h after inoculation): -
Ergebnis der Reisolierung qualitiativ (+/-) nach Anreicherung ([7]; 6 h after inoculation): -
Ergebnis der Reisolierung qualitiativ (+/-) nach Anreicherung ([7]; 8 h after inoculation): -
Ergebnis der Reisolierung qualitiativ (+/-) nach Anreicherung ([7]; 24 h after inoculation): -
Ergebnis der Reisolierung qualitiativ (+/-) nach Anreicherung ([7]; 32 h after inoculation): -
Ergebnis der Reisolierung qualitiativ (+/-) nach Anreicherung ([7]; 48 h after inoculation): -
Ergebnis der Reisolierung qualitiativ (+/-) nach Anreicherung ([7]; 72 h after inoculation): -
Ergebnis der Reisolierung qualitiativ (+/-) nach Anreicherung ([8]; 2 h after inoculation): -
Ergebnis der Reisolierung qualitiativ (+/-) nach Anreicherung ([8]; 4 h after inoculation): -
Ergebnis der Reisolierung qualitiativ (+/-) nach Anreicherung ([8]; 6 h after inoculation): -
Ergebnis der Reisolierung qualitiativ (+/-) nach Anreicherung ([8]; 8 h after inoculation): -
Ergebnis der Reisolierung qualitiativ (+/-) nach Anreicherung ([8]; 24 h after inoculation): -
Ergebnis der Reisolierung qualitiativ (+/-) nach Anreicherung ([8]; 32 h after inoculation): -
Ergebnis der Reisolierung qualitiativ (+/-) nach Anreicherung ([8]; 48 h after inoculation): -
Ergebnis der Reisolierung qualitiativ (+/-) nach Anreicherung ([8]; 72 h after inoculation): -
Ergebnis der Reisolierung qualitiativ (+/-) nach Anreicherung ([9]; 2 h after inoculation): -
Ergebnis der Reisolierung qualitiativ (+/-) nach Anreicherung ([9]; 4 h after inoculation): -
Ergebnis der Reisolierung qualitiativ (+/-) nach Anreicherung ([9]; 6 h after inoculation): -
Ergebnis der Reisolierung qualitiativ (+/-) nach Anreicherung ([9]; 8 h after inoculation): -
Ergebnis der Reisolierung qualitiativ (+/-) nach Anreicherung ([9]; 24 h after inoculation): -
Ergebnis der Reisolierung qualitiativ (+/-) nach Anreicherung ([9]; 32 h after inoculation): -
Ergebnis der Reisolierung qualitiativ (+/-) nach Anreicherung ([9]; 48 h after inoculation): -
Ergebnis der Reisolierung qualitiativ (+/-) nach Anreicherung ([9]; 72 h after inoculation): -
Ergebnis der Reisolierung qualitiativ (+/-) nach Anreicherung ([10]; 2 h after inoculation): -
Ergebnis der Reisolierung qualitiativ (+/-) nach Anreicherung ([10]; 4 h after inoculation): -
Ergebnis der Reisolierung qualitiativ (+/-) nach Anreicherung ([10]; 6 h after inoculation): -
Ergebnis der Reisolierung qualitiativ (+/-) nach Anreicherung ([10]; 8 h after inoculation): -
Ergebnis der Reisolierung qualitiativ (+/-) nach Anreicherung ([10]; 24 h after inoculation): -
Ergebnis der Reisolierung qualitiativ (+/-) nach Anreicherung ([10]; 32 h after inoculation): -
Ergebnis der Reisolierung qualitiativ (+/-) nach Anreicherung ([10]; 48 h after inoculation): -
Ergebnis der Reisolierung qualitiativ (+/-) nach Anreicherung ([10]; 72 h after inoculation): -
Ergebnis der Reisolierung qualitiativ (+/-) nach Anreicherung ([11]; 2 h after inoculation): -
Ergebnis der Reisolierung qualitiativ (+/-) nach Anreicherung ([11]; 4 h after inoculation): -
Ergebnis der Reisolierung qualitiativ (+/-) nach Anreicherung ([11]; 6 h after inoculation): -
Ergebnis der Reisolierung qualitiativ (+/-) nach Anreicherung ([11]; 8 h after inoculation): -
Ergebnis der Reisolierung qualitiativ (+/-) nach Anreicherung ([11]; 24 h after inoculation): -
Ergebnis der Reisolierung qualitiativ (+/-) nach Anreicherung ([11]; 32 h after inoculation): -
Ergebnis der Reisolierung qualitiativ (+/-) nach Anreicherung ([11]; 48 h after inoculation): -
Ergebnis der Reisolierung qualitiativ (+/-) nach Anreicherung ([11]; 72 h after inoculation): -
